Structures can show the parent of a compound that is named as a salt.
How the values were obtained:
Assay type in all cases: physicochemical
[1] = Physical stability (PXRD) after storage at 70° C.
Experimental: Physical Stability (PXRD) (Table 12): Powder X-ray diffraction analysis was conducted using a Bruker AXS D8 Endeavor diffractometer equipped with a Cu radiation source. The divergence slit was set at 10 mm continuous illumination. Diffracted radiation was detected by a PSD-Lynx Eye detector, with the detector PSD opening set at 2.99 degrees. The X-ray tube voltage and amperage were set to 40 kV and 40 mA respectively. Data was collected in the Theta-Theta goniometer at the Cu wavelength from 3.0 to 40.0 degrees 2-Theta using a step size of 0.02 degrees and a step time of 0.3 second. The antiscatter screen was set to a fixed distance of 1.5 mm. Samples were rotated at 15/min during collection. Samples were prepared by placing them in a silicon low background sample holder and rotated during collection. Data were collected using Bruker DIFFRAC Plus software and analysis was performed by EVA diffract plus software. A Small divot sample holder was used.
Physical Stability (PXRD) (Table 13): The Rigaku MiniFlex 6G Diffractometer used is equipped with a Cu radiation source. Diffracted radiation was detected by a D/teX Ultra2 detector. The X-ray tube voltage and amperages were set to 40 kV and 15 mA respectively. Data was collected in the Miniflex goniometer at the Cu wavelength from 3.0 to 45.0° 20 using a step width of 0.02° and a step speed of 2.00°/minute. The incident slit box was set to 1.25° and the length limiting slit was set at 10 mm. The sample was rotated at 10 RPM during collection. The data was analyzed using Rigaku software SmartLab Studio II.
The sample was prepared by placement into a silicon low background sample holder (0.2 indent plate). The sample was confirmed to be level and packed prior to measurement. The sample was not ground (by mortar and pestle, or by any other means) prior to placement in the sample holder.

[2] = Photostability (2xICH), HPLC
From the text: Photostability (Table 12): Sample preparation: Control—about 1 g of sample was transferred into a weighting bottle and covered with a glass cover. The sample was wrapped in aluminum foil to protect from light and placed into the photostability chamber. Photostability sample: about 1 g of sample was transferred into a weighing bottle, then placed into the photostability chamber. Storage conditions: The photostability samples were stored according to ICH Photostability Option 2: A cool white fluorescent lamp designed to produce an output similar to that specified in ISO 10977 (1993), a near UV fkuorescent lamp having a spectral distribution from 320 nm to 400 nm with a maximum energy emission between 350 nm and 370 nm; a significant portion of UV should be in both bands of 320 to 360 nm and 360 to 400 nm. The photo stability and dark control samples were exposed to the light equipment providing photo intensity if 5000±500 Lx (near ultraviolet energy 0.84 W/m^2±10%) and irradiated for 12 days (samples exposed to light providing an overall illumination of not less than 1.2 million lux hours and an integrated near UV energy of not less than 200 watt hours/quare meter).
Photostability (HPLC) (Table 12): An Agilent 1100 HPLC was used with a Waters XSelect HSS T3 Column (100 angstrom, 4.6×150 mm, 5 μm). The column temperature was set to 20° C., the UV wavelength set to 254 nm, the injection volume was 10 μL, with a flow rate of 1.0 mL/min. 10 mM ammonium acetate adjusted to pH 4.8 was used as a mobile phase A, and acetonitrile was used as mobile phase B. The gradient method was set up to achieve 15% mobile phase B at 0 minutes, 95% mobile phase B at 17 minutes—held until 22 minutes, 15% mobile phase. […]
Physical (PXRD) (Table 13): Powder X-ray diffraction analysis was conducted using a Bruker AXS D8 Endeavor diffractometer equipped with a Cu radiation source. […] Diffracted radiation was detected by a PSD-Lynx Eye detector, with the detector PSD opening set at 2.99 degrees. […]

[3] = Dynamic vapor sorption, hygroscopicity (Tables 12 and 13); settings: DVS
Experimental: Dynamic Vapor Sorption (“DVS”) (Table 12): The microbalance was calibrated using a 100 mg standard weight. The relative humidity sensor was calibrated at 5.0, 11.3, 32.8, 52.8, 75.3, and 84.3% RH (25° C.) using saturated salt solutions, as well as 80% RH (25° C.) using polyvinylpyrrolidone. 8-10 mg of the powder sample was placed in the platinum sample pan. There is no drying step with this method. The RH is first maintained at 30% RH, then decreased to 10% RH, and then 3% RH using the criteria of moving on when the weight change of the sample was <0.001 wt % in 5 min or after reaching a maximum equilibration time of 60 minutes. […] Again, the attainment of equilibrium was assumed when the weight change of the sample was <0.001 wt % in 5 min or by a maximum equilibration time of 120 minutes.
DVS (Table 13): Water sorption and desorption were analyzed with a DVS-Resolution. The microbalance is calibrated with a 100 mg standard weight on a monthly basis. About 5 mg of API was added to a translucent sample pan and placed inside chamber A of the DVS-Resolution. Percent relative humidity was held at 0% for 1 hour, and increased to 90% in 10% increments, then ramped back to 0% in 10% increments.

[4] = 70° C./75% RH, first of two lines so headed
[5] = printed 70° C./75% RH, second of two lines so headed

SMILES	Physical Stability (70° C./75% RH) [1, 4]	Physical Stability (70° C./75% RH) [1, 5]	Photostability (2xICH), photodeg RRT 1.16 [2]	Photostability (2xICH), photodeg RRT 1.62 [2]	Hygroscopity [3]	Photostability (2xICH), decrease in purity [2]	Hygroscopity, weight gain ([3]; up to 90% relative humidity)
Nc1nccc(Sc2cnc(N3CCC4(CC3)Cc3ccccc3[C@H]4N)nn2)c1Cl.Nc1nccc(Sc2cnc(N3CCC4(CC3)Cc3ccccc3[C@H]4N)nn2)c1Cl.O [Example 2, (S)-1′-(6-((2-amino-3-chloropyridin-4-yl)thio)-1,2,4-triazin-3-yl)-1,3-dihydrospiro[indene-2,4′-piperidin]-1-amine Free Base Hemihydrate (Form 1)]	No change	No change	~0.36%	~0.32%	Non-hygroscopic at 25 °C and exhibits less	–	–
Nc1nccc(Sc2cnc(N3CCC4(CC3)Cc3ccccc3[C@H]4N)nn2)c1Cl [Example 3, (S)-1′-(6-((2-amino-3-chloropyridin-4-yl)thio)-1,2,4-triazin-3-yl)-1,3-dihydrospiro[indene-2,4′-piperidin]-1-amine Mono Succinate Salt Form 1]	No change	No change	–	–	not hygroscopic	0.53% decrease in purity	0.9%

From patent US20250214966A1, “Crystalline Salt Form Of A SHP2 Inhibitor” (Array BioPharma Inc., priority 2022, published 2025)
